“And” between values parts separate entries of the source, which are not always exact repeats. Equal entries are not always repeated. Numbers after ± are expanded uncertainties.
Settings: Fluid (supercritical or subcritical phases), Buoyancy - hydrostatic balance with magnetic suspension - two sinkers

CCC [propane]
mass density (265 K, 2141.2 kPa): 542.504 ± 0.065 kg/m3
mass density (265 K, 2141.4 kPa): 542.503 ± 0.065 kg/m3
mass density (265 K, 2144 kPa): 542.507 ± 0.065 kg/m3 and 542.508 ± 0.065 kg/m3
mass density (265 K, 2144.3 kPa): 542.51 ± 0.065 kg/m3
mass density (265 K, 2144.8 kPa): 542.509 ± 0.065 kg/m3
mass density (265 K, 2145 kPa): 542.509 ± 0.065 kg/m3
mass density (265 K, 3759.4 kPa): 545.171 ± 0.066 kg/m3
mass density (265 K, 3760 kPa): 545.17 ± 0.066 kg/m3
mass density (265 K, 3760.5 kPa): 545.17 ± 0.066 kg/m3
mass density (265 K, 3766.3 kPa): 545.182 ± 0.066 kg/m3
mass density (265 K, 3771.8 kPa): 545.194 ± 0.066 kg/m3
mass density (265 K, 4142.6 kPa): 545.789 ± 0.066 kg/m3
mass density (265 K, 4145 kPa): 545.794 ± 0.066 kg/m3
mass density (265 K, 4149.1 kPa): 545.797 ± 0.066 kg/m3
mass density (265 K, 4150.8 kPa): 545.802 ± 0.066 kg/m3
mass density (265 K, 8329.8 kPa): 552.117 ± 0.067 kg/m3
mass density (265 K, 8330.5 kPa): 552.12 ± 0.067 kg/m3
mass density (265 K, 8330.7 kPa): 552.117 ± 0.067 kg/m3
mass density (265 K, 8331.9 kPa): 552.121 ± 0.067 kg/m3
mass density (265 K, 8332.3 kPa): 552.121 ± 0.067 kg/m3
mass density (265 K, 12135 kPa): 557.342 ± 0.067 kg/m3
mass density (265 K, 12136 kPa): 557.343 ± 0.067 kg/m3
mass density (265 K, 12137 kPa): 557.343 ± 0.067 kg/m3
mass density (265 K, 16242 kPa): 562.533 ± 0.068 kg/m3
mass density (265 K, 16243 kPa): 562.535 ± 0.068 kg/m3
mass density (265 K, 16245 kPa): 562.537 ± 0.068 kg/m3
mass density (265 K, 16246 kPa): 562.537 ± 0.068 kg/m3
mass density (265 K, 20184 kPa): 567.153 ± 0.068 kg/m3 and 567.155 ± 0.068 kg/m3
mass density (265 K, 20189 kPa): 567.157 ± 0.068 kg/m3
mass density (265 K, 20190 kPa): 567.159 ± 0.068 kg/m3
mass density (265 K, 20191 kPa): 567.16 ± 0.068 kg/m3
mass density (265 K, 24029 kPa): 571.368 ± 0.069 kg/m3
mass density (265 K, 24030 kPa): 571.371 ± 0.069 kg/m3
mass density (265 K, 24031 kPa): 571.373 ± 0.069 kg/m3 and 571.369 ± 0.069 kg/m3
mass density (265 K, 30007 kPa): 577.453 ± 0.07 kg/m3 and 577.455 ± 0.07 kg/m3 and 577.457 ± 0.07 kg/m3
mass density (265 K, 30010 kPa): 577.458 ± 0.07 kg/m3 and 577.459 ± 0.07 kg/m3
mass density (265 K, 34915 kPa): 582.091 ± 0.07 kg/m3
mass density (265 K, 34916 kPa): 582.091 ± 0.07 kg/m3 and 582.092 ± 0.07 kg/m3 and 582.09 ± 0.07 kg/m3
mass density (280 K, 2010.8 kPa): 522.313 ± 0.063 kg/m3
mass density (280 K, 2011 kPa): 522.314 ± 0.063 kg/m3
mass density (280 K, 2012.2 kPa): 522.319 ± 0.063 kg/m3
mass density (280 K, 2013 kPa): 522.322 ± 0.063 kg/m3
mass density (280 K, 2016.3 kPa): 522.324 ± 0.063 kg/m3
mass density (280 K, 2020 kPa): 522.336 ± 0.063 kg/m3
mass density (280 K, 2020.8 kPa): 522.337 ± 0.063 kg/m3
mass density (280 K, 2021.2 kPa): 522.338 ± 0.063 kg/m3
mass density (280 K, 2021.3 kPa): 522.335 ± 0.063 kg/m3
mass density (280 K, 2021.4 kPa): 522.337 ± 0.063 kg/m3
mass density (280 K, 4077.8 kPa): 526.538 ± 0.064 kg/m3
mass density (280 K, 4078.2 kPa): 526.542 ± 0.064 kg/m3
mass density (280 K, 4078.3 kPa): 526.539 ± 0.064 kg/m3
mass density (280 K, 4078.4 kPa): 526.539 ± 0.064 kg/m3
mass density (280 K, 8037.8 kPa): 533.834 ± 0.064 kg/m3
mass density (280 K, 8038.9 kPa): 533.835 ± 0.064 kg/m3
mass density (280 K, 8039.6 kPa): 533.833 ± 0.064 kg/m3
mass density (280 K, 8040 kPa): 533.836 ± 0.064 kg/m3
mass density (280 K, 8040.4 kPa): 533.836 ± 0.064 kg/m3
mass density (280 K, 12164 kPa): 540.567 ± 0.065 kg/m3
mass density (280 K, 12165 kPa): 540.568 ± 0.065 kg/m3
mass density (280 K, 12166 kPa): 540.568 ± 0.065 kg/m3
mass density (280 K, 12167 kPa): 540.57 ± 0.065 kg/m3
mass density (280 K, 16052 kPa): 546.301 ± 0.066 kg/m3 and 546.302 ± 0.066 kg/m3
mass density (280 K, 16053 kPa): 546.299 ± 0.066 kg/m3 and 546.301 ± 0.066 kg/m3
mass density (280 K, 16054 kPa): 546.301 ± 0.066 kg/m3
mass density (280 K, 20169 kPa): 551.856 ± 0.067 kg/m3
mass density (280 K, 20170 kPa): 551.857 ± 0.067 kg/m3
mass density (280 K, 20171 kPa): 551.857 ± 0.067 kg/m3
mass density (280 K, 20173 kPa): 551.86 ± 0.067 kg/m3
mass density (280 K, 24174 kPa): 556.843 ± 0.067 kg/m3
mass density (280 K, 24175 kPa): 556.845 ± 0.067 kg/m3
mass density (280 K, 24178 kPa): 556.848 ± 0.067 kg/m3
mass density (280 K, 29900 kPa): 563.396 ± 0.068 kg/m3 and 563.395 ± 0.068 kg/m3
mass density (280 K, 29902 kPa): 563.397 ± 0.068 kg/m3 and 563.398 ± 0.068 kg/m3
mass density (280 K, 35491 kPa): 569.254 ± 0.069 kg/m3
mass density (280 K, 35492 kPa): 569.255 ± 0.069 kg/m3
mass density (280 K, 35494 kPa): 569.255 ± 0.069 kg/m3
mass density (280 K, 35496 kPa): 569.259 ± 0.069 kg/m3
mass density (300 K, 2095.9 kPa): 492.916 ± 0.06 kg/m3
mass density (300 K, 2096.6 kPa): 492.92 ± 0.06 kg/m3
mass density (300 K, 2096.7 kPa): 492.918 ± 0.06 kg/m3
mass density (300 K, 2096.8 kPa): 492.918 ± 0.06 kg/m3
mass density (300 K, 2097 kPa): 492.917 ± 0.06 kg/m3
mass density (300 K, 4036.5 kPa): 498.494 ± 0.06 kg/m3
mass density (300 K, 4037.2 kPa): 498.496 ± 0.06 kg/m3
mass density (300 K, 4037.3 kPa): 498.493 ± 0.06 kg/m3
mass density (300 K, 4037.4 kPa): 498.494 ± 0.06 kg/m3
mass density (300 K, 8037.7 kPa): 508.391 ± 0.061 kg/m3
mass density (300 K, 8038 kPa): 508.393 ± 0.061 kg/m3
mass density (300 K, 8038.1 kPa): 508.394 ± 0.061 kg/m3
mass density (300 K, 8038.4 kPa): 508.391 ± 0.061 kg/m3
mass density (300 K, 8038.7 kPa): 508.393 ± 0.061 kg/m3
mass density (300 K, 12024 kPa): 516.758 ± 0.062 kg/m3
mass density (300 K, 12025 kPa): 516.758 ± 0.062 kg/m3 and 516.759 ± 0.062 kg/m3
mass density (300 K, 16033 kPa): 524.122 ± 0.063 kg/m3 and 524.123 ± 0.063 kg/m3
mass density (300 K, 16035 kPa): 524.125 ± 0.063 kg/m3
mass density (300 K, 16037 kPa): 524.128 ± 0.063 kg/m3
mass density (300 K, 20366 kPa): 531.21 ± 0.064 kg/m3
mass density (300 K, 20369 kPa): 531.216 ± 0.064 kg/m3
mass density (300 K, 20370 kPa): 531.214 ± 0.064 kg/m3
mass density (300 K, 23908 kPa): 536.474 ± 0.065 kg/m3 and 536.475 ± 0.065 kg/m3
mass density (300 K, 23909 kPa): 536.476 ± 0.065 kg/m3
mass density (300 K, 23911 kPa): 536.479 ± 0.065 kg/m3
mass density (300 K, 29891 kPa): 544.528 ± 0.066 kg/m3
mass density (300 K, 29892 kPa): 544.529 ± 0.066 kg/m3 and 544.528 ± 0.066 kg/m3
mass density (300 K, 35152 kPa): 550.916 ± 0.066 kg/m3
mass density (300 K, 35153 kPa): 550.918 ± 0.066 kg/m3 and 550.916 ± 0.066 kg/m3
mass density (300 K, 35154 kPa): 550.917 ± 0.066 kg/m3
mass density (310 K, 261.67 kPa): 4.6501 ± 0.0029 kg/m3
mass density (310 K, 261.68 kPa): 4.6501 ± 0.0029 kg/m3 and 4.6502 ± 0.0029 kg/m3
mass density (310 K, 261.69 kPa): 4.6502 ± 0.0029 kg/m3
mass density (310 K, 460.64 kPa): 8.455 ± 0.0034 kg/m3 and 8.4548 ± 0.0034 kg/m3 and 8.4549 ± 0.0034 kg/m3
mass density (310 K, 760.19 kPa): 14.7402 ± 0.0041 kg/m3
mass density (310 K, 760.2 kPa): 14.7403 ± 0.0041 kg/m3
mass density (310 K, 760.25 kPa): 14.7415 ± 0.0041 kg/m3
mass density (310 K, 760.28 kPa): 14.7419 ± 0.0041 kg/m3 and 14.7421 ± 0.0041 kg/m3

Reference: the NIST ThermoML archive (doi:10.1021/je900124n)
